Earlier results on two compounds are cited in patent US20060270013A1 (priority 2003, published 2006).

By Km is commonly meant the concentration of substrate that gives half-maximal velocity. The term kcat denotes the maximal rate divided by the concentration of active sites.

This series has as its target NADPH-dependent benzil reductase (Bacillus cereus, UniProt Q8RJB2). Particulars: substrate of benzil reductase; Maruyama et al. 2002.

NADPH-dependent benzil reductase, sequence (Q8RJB2 whole entry): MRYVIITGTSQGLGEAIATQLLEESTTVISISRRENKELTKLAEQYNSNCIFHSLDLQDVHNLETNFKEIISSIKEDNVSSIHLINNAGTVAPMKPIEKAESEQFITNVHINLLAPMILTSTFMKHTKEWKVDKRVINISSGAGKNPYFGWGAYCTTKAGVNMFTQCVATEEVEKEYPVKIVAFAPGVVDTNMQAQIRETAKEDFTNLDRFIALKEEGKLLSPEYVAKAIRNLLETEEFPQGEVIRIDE

As to `CC(=O)C(=O)c1ccccc1` [1-phenyl-1,2-propanedione], the Km is 42 µM and the kcat was 2.75 s⁻¹.

On to `O=Cc1ccc([N+](=O)[O-])cc1` [p-nitrobenzaldehyde], for which the Km was 261 µM and the kcat is 0.02 s⁻¹.
